Results published in the kinase profiling compilation of Christmann-Franck et al. (2016).

Tests used:
Assay in all cases: KINOMEscan competition binding
Details in all cases: compound 10.0 µM
ACVR2B (human) = ACVR2B (human) (UniProt Q13705)
BTK (human) = BTK (human) (UniProt Q06187)
CAMK2G (human) = CAMK2G (human) (UniProt Q13555)
CAMK4 (human) = CAMK4 (human) (UniProt Q16566)
CDK19 (human) = CDK19 (human) (UniProt Q9BWU1)
CDK9 (human) = CDK9 (human) (UniProt P50750)
CDKL3 (human) = CDKL3 (human) (UniProt Q8IVW4)
CSF1R (human) = CSF1R (human) (UniProt P07333)
CSNK1A1L (human) = CSNK1A1L (human) (UniProt Q8N752)
[1] = system: EGFR (human), P00533 [T790M/L858R]
EPHA3 (human) = EPHA3 (human) (UniProt P29320)
FGFR1 (human) = FGFR1 (human) (UniProt P11362)
FYN (human) = FYN (human) (UniProt P06241)
GSK3A (human) = GSK3A (human) (UniProt P49840)
IKBKE (human) = IKBKE (human) (UniProt Q14164)
IRAK3 (human) = IRAK3 (human) (UniProt Q9Y616)
ITK (human) = ITK (human) (UniProt Q08881)
[2] = system: KIT (human), P10721 [V559D/V654A]
MAK (human) = MAK (human) (UniProt P20794)
MAP2K4 (human) = MAP2K4 (human) (UniProt P45985)
MAP3K1 (human) = MAP3K1 (human) (UniProt Q13233)
MAP3K3 (human) = MAP3K3 (human) (UniProt Q99759)
MAP3K5 (human) = MAP3K5 (human) (UniProt Q99683)
MAPK4 (human) = MAPK4 (human) (UniProt P31152)
MAPK9 (human) = MAPK9 (human) (UniProt P45984)
MELK (human) = MELK (human) (UniProt Q14680)
MST1R (human) = MST1R (human) (UniProt Q04912)
MST4 (human) = MST4 (human) (UniProt Q9P289)
NIM1 (human) = NIM1 (human) (UniProt Q8IY84)
PAK2 (human) = PAK2 (human) (UniProt Q13177)
PIK3CD (human) = PIK3CD (human) (UniProt O00329)
PIP4K2B (human) = PIP4K2B (human) (UniProt P78356)
PIP5K1A (human) = PIP5K1A (human) (UniProt Q99755)
PRKAA2 (human) = PRKAA2 (human) (UniProt P54646)
PRKACB (human) = PRKACB (human) (UniProt P22694)
PRKG2 (human) = PRKG2 (human) (UniProt Q13237)
RIPK1 (human) = RIPK1 (human) (UniProt Q13546)
RPS6KA1 KD2 (human) = RPS6KA1 KD2 (human) (UniProt Q15418)
RPS6KA3 KD1 (human) = RPS6KA3 KD1 (human) (UniProt P51812)
VRK2 (human) = VRK2 (human) (UniProt Q86Y07)

Sequence of FGFR1 (human) (P11362 whole entry, looked up): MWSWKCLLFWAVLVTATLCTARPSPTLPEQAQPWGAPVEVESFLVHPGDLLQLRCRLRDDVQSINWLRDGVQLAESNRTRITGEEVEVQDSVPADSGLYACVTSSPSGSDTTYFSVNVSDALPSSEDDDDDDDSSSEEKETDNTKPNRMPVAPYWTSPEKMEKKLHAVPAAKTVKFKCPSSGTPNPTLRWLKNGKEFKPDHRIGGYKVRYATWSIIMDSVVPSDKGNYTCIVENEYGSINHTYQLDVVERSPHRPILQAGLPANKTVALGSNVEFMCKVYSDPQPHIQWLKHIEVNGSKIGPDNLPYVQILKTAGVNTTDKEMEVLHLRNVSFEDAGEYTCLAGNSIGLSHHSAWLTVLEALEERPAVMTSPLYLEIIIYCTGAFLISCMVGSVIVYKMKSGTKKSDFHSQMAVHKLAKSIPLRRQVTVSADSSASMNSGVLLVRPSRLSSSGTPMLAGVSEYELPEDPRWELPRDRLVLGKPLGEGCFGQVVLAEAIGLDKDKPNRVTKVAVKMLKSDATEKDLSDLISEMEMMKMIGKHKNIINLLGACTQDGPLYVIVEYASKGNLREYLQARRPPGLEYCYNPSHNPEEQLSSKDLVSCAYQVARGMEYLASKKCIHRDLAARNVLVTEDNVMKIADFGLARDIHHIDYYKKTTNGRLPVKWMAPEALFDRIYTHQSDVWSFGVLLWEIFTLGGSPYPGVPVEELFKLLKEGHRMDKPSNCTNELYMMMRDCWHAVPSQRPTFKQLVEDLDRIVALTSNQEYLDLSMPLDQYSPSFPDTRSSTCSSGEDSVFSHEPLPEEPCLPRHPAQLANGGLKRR
Sequence of RPS6KA3 KD1 (human) (P51812 whole entry, looked up): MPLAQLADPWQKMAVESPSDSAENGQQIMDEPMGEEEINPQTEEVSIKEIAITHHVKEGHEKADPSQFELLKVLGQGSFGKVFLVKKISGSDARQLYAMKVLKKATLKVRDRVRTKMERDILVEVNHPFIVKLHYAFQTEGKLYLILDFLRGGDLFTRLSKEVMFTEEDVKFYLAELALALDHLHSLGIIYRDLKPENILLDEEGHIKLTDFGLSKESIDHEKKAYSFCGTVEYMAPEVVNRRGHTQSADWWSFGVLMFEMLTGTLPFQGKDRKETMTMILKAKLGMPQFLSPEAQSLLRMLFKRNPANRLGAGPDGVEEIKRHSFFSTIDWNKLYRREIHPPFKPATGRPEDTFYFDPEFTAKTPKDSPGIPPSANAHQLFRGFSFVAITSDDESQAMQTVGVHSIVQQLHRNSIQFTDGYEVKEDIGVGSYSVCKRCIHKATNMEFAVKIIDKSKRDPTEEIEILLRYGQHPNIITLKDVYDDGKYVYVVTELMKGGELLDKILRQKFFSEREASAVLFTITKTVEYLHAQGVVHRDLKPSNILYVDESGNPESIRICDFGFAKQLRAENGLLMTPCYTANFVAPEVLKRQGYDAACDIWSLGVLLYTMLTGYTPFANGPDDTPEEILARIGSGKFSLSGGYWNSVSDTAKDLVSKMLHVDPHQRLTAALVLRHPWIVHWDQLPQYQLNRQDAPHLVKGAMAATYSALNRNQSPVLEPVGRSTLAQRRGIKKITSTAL
Sequence of MAP3K3 (human) (Q99759 whole entry, looked up): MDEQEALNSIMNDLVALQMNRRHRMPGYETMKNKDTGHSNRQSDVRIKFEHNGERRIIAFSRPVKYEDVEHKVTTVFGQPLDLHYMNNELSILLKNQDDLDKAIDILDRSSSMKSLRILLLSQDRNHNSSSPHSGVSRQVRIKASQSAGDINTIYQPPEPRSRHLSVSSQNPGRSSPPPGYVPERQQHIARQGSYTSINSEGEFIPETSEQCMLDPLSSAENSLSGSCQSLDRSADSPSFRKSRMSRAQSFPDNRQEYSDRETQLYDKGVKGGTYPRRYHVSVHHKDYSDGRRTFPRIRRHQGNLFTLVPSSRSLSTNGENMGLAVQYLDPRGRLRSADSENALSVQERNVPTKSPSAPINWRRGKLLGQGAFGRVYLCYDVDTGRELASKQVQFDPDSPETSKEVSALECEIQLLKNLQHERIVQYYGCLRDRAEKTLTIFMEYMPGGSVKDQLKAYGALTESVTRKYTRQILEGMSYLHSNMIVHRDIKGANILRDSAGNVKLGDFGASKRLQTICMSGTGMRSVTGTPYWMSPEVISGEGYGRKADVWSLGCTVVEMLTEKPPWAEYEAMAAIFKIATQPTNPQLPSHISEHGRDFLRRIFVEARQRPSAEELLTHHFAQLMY
Sequence of BTK (human) (Q06187 whole entry, looked up): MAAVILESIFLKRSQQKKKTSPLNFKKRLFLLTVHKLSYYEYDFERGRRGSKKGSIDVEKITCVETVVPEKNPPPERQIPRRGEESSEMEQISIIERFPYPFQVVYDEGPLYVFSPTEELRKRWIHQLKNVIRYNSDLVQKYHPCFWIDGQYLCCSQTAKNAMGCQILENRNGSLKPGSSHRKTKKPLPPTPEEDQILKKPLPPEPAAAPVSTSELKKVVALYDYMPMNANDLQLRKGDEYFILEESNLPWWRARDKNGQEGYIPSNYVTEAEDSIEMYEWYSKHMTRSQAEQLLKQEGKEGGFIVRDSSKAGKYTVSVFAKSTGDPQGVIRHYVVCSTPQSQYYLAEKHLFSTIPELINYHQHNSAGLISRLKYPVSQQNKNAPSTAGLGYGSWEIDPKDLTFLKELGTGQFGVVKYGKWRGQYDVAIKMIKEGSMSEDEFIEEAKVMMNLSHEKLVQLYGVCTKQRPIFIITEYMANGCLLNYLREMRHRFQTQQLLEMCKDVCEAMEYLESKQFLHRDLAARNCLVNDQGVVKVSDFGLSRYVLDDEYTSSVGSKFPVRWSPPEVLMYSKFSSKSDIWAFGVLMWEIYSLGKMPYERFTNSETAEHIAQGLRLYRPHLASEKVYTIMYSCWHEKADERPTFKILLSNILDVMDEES
Sequence of CAMK2G (human) (Q13555 whole entry, looked up): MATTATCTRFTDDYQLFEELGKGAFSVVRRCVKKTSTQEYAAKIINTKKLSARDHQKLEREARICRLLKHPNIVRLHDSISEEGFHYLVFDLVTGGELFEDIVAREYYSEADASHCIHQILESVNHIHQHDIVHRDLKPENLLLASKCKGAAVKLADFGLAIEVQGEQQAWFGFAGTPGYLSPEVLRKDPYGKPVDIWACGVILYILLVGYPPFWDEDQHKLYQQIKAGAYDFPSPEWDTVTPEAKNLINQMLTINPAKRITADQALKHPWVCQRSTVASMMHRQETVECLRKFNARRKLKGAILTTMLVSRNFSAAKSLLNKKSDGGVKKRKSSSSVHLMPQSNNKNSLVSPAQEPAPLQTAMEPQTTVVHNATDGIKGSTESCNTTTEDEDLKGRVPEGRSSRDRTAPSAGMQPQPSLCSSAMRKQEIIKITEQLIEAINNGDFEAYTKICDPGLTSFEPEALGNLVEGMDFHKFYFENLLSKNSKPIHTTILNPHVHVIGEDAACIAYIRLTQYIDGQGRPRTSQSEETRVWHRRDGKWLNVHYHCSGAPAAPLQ
Sequence of NIM1 (human) (Q8IY84 whole entry, looked up): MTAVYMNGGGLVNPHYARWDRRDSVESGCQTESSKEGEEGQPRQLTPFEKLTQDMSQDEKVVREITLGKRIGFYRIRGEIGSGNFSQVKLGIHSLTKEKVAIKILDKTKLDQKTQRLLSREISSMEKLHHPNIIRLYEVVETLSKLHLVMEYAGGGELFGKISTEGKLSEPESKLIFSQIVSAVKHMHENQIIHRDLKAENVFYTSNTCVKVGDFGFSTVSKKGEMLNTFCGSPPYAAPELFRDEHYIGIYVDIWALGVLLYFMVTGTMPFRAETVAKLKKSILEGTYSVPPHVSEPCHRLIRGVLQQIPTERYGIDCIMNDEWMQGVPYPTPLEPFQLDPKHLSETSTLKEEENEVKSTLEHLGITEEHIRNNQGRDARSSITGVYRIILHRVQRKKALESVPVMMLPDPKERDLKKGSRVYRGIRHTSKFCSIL
Sequence of PIK3CD (human) (O00329 whole entry, looked up): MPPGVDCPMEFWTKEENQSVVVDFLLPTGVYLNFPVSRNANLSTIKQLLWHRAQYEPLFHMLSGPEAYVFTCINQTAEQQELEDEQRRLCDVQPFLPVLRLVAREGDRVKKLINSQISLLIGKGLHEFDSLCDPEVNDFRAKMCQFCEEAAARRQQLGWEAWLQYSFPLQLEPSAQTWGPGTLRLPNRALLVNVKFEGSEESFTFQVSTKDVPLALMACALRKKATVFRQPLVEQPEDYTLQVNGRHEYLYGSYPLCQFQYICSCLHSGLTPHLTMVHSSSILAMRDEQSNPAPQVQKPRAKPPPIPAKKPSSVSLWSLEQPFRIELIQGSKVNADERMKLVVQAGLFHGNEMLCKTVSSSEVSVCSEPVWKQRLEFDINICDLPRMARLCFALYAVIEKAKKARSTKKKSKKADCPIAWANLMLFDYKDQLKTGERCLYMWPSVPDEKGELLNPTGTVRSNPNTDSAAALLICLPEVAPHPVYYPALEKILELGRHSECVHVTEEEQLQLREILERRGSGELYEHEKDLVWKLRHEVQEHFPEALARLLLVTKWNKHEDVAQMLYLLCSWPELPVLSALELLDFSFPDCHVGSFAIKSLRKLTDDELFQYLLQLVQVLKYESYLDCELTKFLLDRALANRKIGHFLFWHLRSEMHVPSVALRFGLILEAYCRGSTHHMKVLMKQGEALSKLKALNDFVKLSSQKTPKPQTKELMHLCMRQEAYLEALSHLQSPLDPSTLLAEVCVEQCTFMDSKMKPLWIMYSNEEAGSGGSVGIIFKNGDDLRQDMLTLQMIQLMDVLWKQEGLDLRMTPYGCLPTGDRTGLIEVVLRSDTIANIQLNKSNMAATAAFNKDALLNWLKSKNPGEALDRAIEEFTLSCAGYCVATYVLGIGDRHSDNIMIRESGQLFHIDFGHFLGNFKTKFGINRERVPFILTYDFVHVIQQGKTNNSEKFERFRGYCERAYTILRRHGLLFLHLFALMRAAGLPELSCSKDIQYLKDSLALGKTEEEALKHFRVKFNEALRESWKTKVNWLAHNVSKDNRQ

| kinase still bound, per cent of control (ACVR2B (human)) | kinase still bound, per cent of control (CAMK4 (human)) | kinase still bound, per cent of control (CDK19 (human)) | kinase still bound, per cent of control (CDK9 (human)) | kinase still bound, per cent of control (CDKL3 (human)) | kinase still bound, per cent of control (CSNK1A1L (human)) | kinase still bound, per cent of control (FGFR1 (human)) | kinase still bound, per cent of control (FYN (human)) | kinase still bound, per cent of control (GSK3A (human)) | kinase still bound, per cent of control (IKBKE (human)) | kinase still bound, per cent of control (IRAK3 (human)) | kinase still bound, per cent of control (ITK (human)) | kinase still bound, per cent of control (MAK (human)) | kinase still bound, per cent of control (MAP2K4 (human)) | kinase still bound, per cent of control (MAP3K1 (human)) | kinase still bound, per cent of control (MAP3K3 (human)) | kinase still bound, per cent of control (MAP3K5 (human)) | kinase still bound, per cent of control (MAPK4 (human)) | kinase still bound, per cent of control (MAPK9 (human)) | kinase still bound, per cent of control (MELK (human)) | SMILES | other results |
| --- | --- | --- | --- | --- | --- | --- | --- | --- | --- | --- | --- | --- | --- | --- | --- | --- | --- | --- | --- | --- | --- |
| 100% | 100% | 100% | 100% | 100% | 100% | 100% | 100% | 100% | 100% | 100% | 100% | 100% | 100% | 100% | 100% | 100% | 100% | 100% | 100% | COc1cc(N2CCN(C)CC2)ccc1Nc1ncc2c(n1)N(C)c1ccccc1C(=O)N2C | kinase still bound, per cent of control (BTK (human)): 100%; kinase still bound, per cent of control (CAMK2G (human)): 31%; kinase still bound, per cent of control (CSF1R (human)): 16%; kinase still bound, per cent of control [1]: 100%; kinase still bound, per cent of control (EPHA3 (human)): 100%; kinase still bound, per cent of control [2]: 100%; kinase still bound, per cent of control (MST1R (human)): 100%; kinase still bound, per cent of control (MST4 (human)): 100%; kinase still bound, per cent of control (NIM1 (human)): 100%; kinase still bound, per cent of control (PAK2 (human)): 100%; kinase still bound, per cent of control (PIK3CD (human)): 33%; kinase still bound, per cent of control (PIP4K2B (human)): 100%; kinase still bound, per cent of control (PIP5K1A (human)): 100%; kinase still bound, per cent of control (PRKAA2 (human)): 100%; kinase still bound, per cent of control (PRKACB (human)): 100%; kinase still bound, per cent of control (PRKG2 (human)): 100%; kinase still bound, per cent of control (RIPK1 (human)): 100%; kinase still bound, per cent of control (RPS6KA1 KD2 (human)): 18%; kinase still bound, per cent of control (RPS6KA3 KD1 (human)): 100% |
| 100% | 100% | 100% | 100% | 100% | 100% | 0.25% | 100% | 100% | 100% | 100% | 100% | 100% | 100% | 100% | 3.8% | 100% | 100% | 100% | 100% | CCN(CC)CCCCNc1ncc2c(n1)N(C)C(=O)N(c1c(Cl)c(OC)cc(OC)c1Cl)C2 | kinase still bound, per cent of control (BTK (human)): 100%; kinase still bound, per cent of control (CAMK2G (human)): 100%; kinase still bound, per cent of control (CSF1R (human)): 0.15%; kinase still bound, per cent of control [1]: 100%; kinase still bound, per cent of control (EPHA3 (human)): 100%; kinase still bound, per cent of control [2]: 100%; kinase still bound, per cent of control (MST1R (human)): 100%; kinase still bound, per cent of control (MST4 (human)): 11%; kinase still bound, per cent of control (NIM1 (human)): 100%; kinase still bound, per cent of control (PAK2 (human)): 100%; kinase still bound, per cent of control (PIK3CD (human)): 100%; kinase still bound, per cent of control (PIP4K2B (human)): 100%; kinase still bound, per cent of control (PIP5K1A (human)): 100%; kinase still bound, per cent of control (PRKAA2 (human)): 100%; kinase still bound, per cent of control (PRKACB (human)): 100%; kinase still bound, per cent of control (PRKG2 (human)): 100%; kinase still bound, per cent of control (RIPK1 (human)): 100%; kinase still bound, per cent of control (RPS6KA1 KD2 (human)): 100%; kinase still bound, per cent of control (RPS6KA3 KD1 (human)): 100% |
| 100% | 100% | 100% | 100% | 100% | 100% | 100% | 100% | 100% | 100% | 100% | 100% | 100% | 100% | 100% | 100% | 100% | 100% | 100% | 100% | CS(=O)(=O)N1CCN(Cc2cc3nc(-c4cccc5[nH]ncc45)nc(N4CCOCC4)c3s2)CC1 | kinase still bound, per cent of control (BTK (human)): 100%; kinase still bound, per cent of control (CAMK2G (human)): 100%; kinase still bound, per cent of control (CSF1R (human)): 100%; kinase still bound, per cent of control [1]: 100%; kinase still bound, per cent of control (EPHA3 (human)): 100%; kinase still bound, per cent of control [2]: 100%; kinase still bound, per cent of control (MST1R (human)): 100%; kinase still bound, per cent of control (MST4 (human)): 100%; kinase still bound, per cent of control (NIM1 (human)): 100%; kinase still bound, per cent of control (PAK2 (human)): 100%; kinase still bound, per cent of control (PIK3CD (human)): 5.2%; kinase still bound, per cent of control (PIP4K2B (human)): 100%; kinase still bound, per cent of control (PIP5K1A (human)): 100%; kinase still bound, per cent of control (PRKAA2 (human)): 100%; kinase still bound, per cent of control (PRKACB (human)): 100%; kinase still bound, per cent of control (PRKG2 (human)): 100%; kinase still bound, per cent of control (RIPK1 (human)): 100%; kinase still bound, per cent of control (RPS6KA1 KD2 (human)): 100%; kinase still bound, per cent of control (RPS6KA3 KD1 (human)): 100% |

| SMILES | kinase still bound, per cent of control (ACVR2B (human)) | kinase still bound, per cent of control (CAMK4 (human)) | kinase still bound, per cent of control (CDK19 (human)) | kinase still bound, per cent of control (CDK9 (human)) | kinase still bound, per cent of control (CDKL3 (human)) | kinase still bound, per cent of control (CSNK1A1L (human)) | kinase still bound, per cent of control (FGFR1 (human)) | kinase still bound, per cent of control (FYN (human)) | kinase still bound, per cent of control (GSK3A (human)) | kinase still bound, per cent of control (IKBKE (human)) | kinase still bound, per cent of control (IRAK3 (human)) | kinase still bound, per cent of control (ITK (human)) | kinase still bound, per cent of control (MAK (human)) | kinase still bound, per cent of control (MAP2K4 (human)) | kinase still bound, per cent of control (MAP3K1 (human)) | kinase still bound, per cent of control (MAP3K3 (human)) | kinase still bound, per cent of control (MAP3K5 (human)) | kinase still bound, per cent of control (MAPK4 (human)) | kinase still bound, per cent of control (MAPK9 (human)) | kinase still bound, per cent of control (MELK (human)) | other results |
| --- | --- | --- | --- | --- | --- | --- | --- | --- | --- | --- | --- | --- | --- | --- | --- | --- | --- | --- | --- | --- | --- |
| CNC(=O)c1cc(Oc2ccc(NC(=O)Nc3ccc(Cl)c(C(F)(F)F)c3)cc2)ccn1 | 75% | 100% | 1.4% | 81% | 0.6% | 98% | 5.2% | 48% | 67% | 100% | 81% | 100% | 41% | 100% | 64% | 86% | 90% | 100% | 19% | 100% | kinase still bound, per cent of control (MST1R (human)): 74%; kinase still bound, per cent of control (MST4 (human)): 100%; kinase still bound, per cent of control (NIM1 (human)): 97%; kinase still bound, per cent of control (PAK2 (human)): 73%; kinase still bound, per cent of control (PIP4K2B (human)): 94%; kinase still bound, per cent of control (PIP5K1A (human)): 100%; kinase still bound, per cent of control (PRKAA2 (human)): 74%; kinase still bound, per cent of control (PRKACB (human)): 100%; kinase still bound, per cent of control (PRKG2 (human)): 96%; kinase still bound, per cent of control (RIPK1 (human)): 81%; kinase still bound, per cent of control (RPS6KA1 KD2 (human)): 100%; kinase still bound, per cent of control (RPS6KA3 KD1 (human)): 81%; kinase still bound, per cent of control (VRK2 (human)): 100% |
